Assay: xn = mol fraction of the nth substance listed

Cn1cc[n+](CC(O)CNCCN(CCNCC(O)C[n+]2ccn(C)c2)CC(O)C[n+]2ccn(C)c2)c1.[Cl-].[Cl-].[Cl-] (configuration not stated) + O
101.33 kPa, x2 = 0.49
Conditions	viscosity [mPa·s]
298.15 K	1956
308.15 K	779.1
318.15 K	370.5

CCCOCC(C)O (configuration not stated) + CCNCC
viscosity [mPa·s], 100 kPa
Conditions	298.15 K	303.15 K	308.15 K
x1 = 0.0509	0.3488	0.3318	0.3107
x1 = 0.1002	0.3949	0.3733	0.3489
x1 = 0.1505	0.4552	0.4261	0.4014
x1 = 0.2	0.519	0.4819	0.4542
x1 = 0.3003	0.6838	0.6321	0.5992
x1 = 0.4	0.8976	0.8055	0.7606
x1 = 0.5002	1.171	1.034	0.9506
x1 = 0.5999	1.436	1.264	1.15
x1 = 0.7	1.742	1.514	1.365
x1 = 0.7982	2.014	1.738	1.562
x1 = 0.9	2.265	1.94	1.739
x1 = 0.9496	2.361	2.021	1.814

O=S(Cl)Cl + [Cl-].[Cl-].[Cl-].[Cl-].[Sn+4]
298.15 K, 101 kPa
Conditions	viscosity [mPa·s]
x1 = 0.402	0.7259
x1 = 0.517	0.7057
x1 = 0.803	0.6524

CCC(C)C(C)C (configuration not stated) + COC(C)(C)C
298.15 K, 101.33 kPa
Conditions	viscosity [mPa·s]
x2 = 0.0983	0.3824
x2 = 0.1999	0.3758
x2 = 0.2986	0.3693
x2 = 0.3972	0.363
x2 = 0.4975	0.3572
x2 = 0.5979	0.3519
x2 = 0.7006	0.3469
x2 = 0.797	0.3423
x2 = 0.8949	0.3387

O=N[O-].[Na+] + O
viscosity [mPa·s]
Conditions	x1 = 0.0182	x1 = 0.0368	x1 = 0.0558	x1 = 0.0753	x1 = 0.0989	x2 = 0.85	x2 = 0.87	x2 = 0.89	x2 = 0.92	x2 = 0.94
293.15 K, 101.33 kPa	–	–	–	–	–	2.834	2.248	1.903	1.494	1.374
298.15 K, 101 kPa	0.97	1.09	1.24	1.43	1.73	–	–	–	–	–
313.15 K, 101 kPa	0.72	0.82	0.93	1.05	1.26	–	–	–	–	–

C1COCO1 + C1CCCCC1
viscosity [mPa·s], 101.3 kPa
Conditions	x2 = 0.0994	x2 = 0.1978	x2 = 0.3014	x2 = 0.3991	x2 = 0.4961	x2 = 0.5974	x2 = 0.6998	x2 = 0.8012	x2 = 0.8994
298.15 K	0.5886	0.593	0.6047	0.6199	0.6405	0.6642	0.6971	0.7404	0.8026
313.15 K	0.4948	0.4959	0.5024	0.5119	0.5256	0.5441	0.5653	0.5967	0.6392

CCCCCCCC/C=C\CCCCCCCC(=O)OCC(COC(=O)CCCCCCC/C=C\CCCCCCCC)OC(=O)CCCCCCC/C=C\CCCCCCCC + Cc1ccccc1
viscosity [mPa·s], 101.33 kPa
Conditions	x1 = 0.000651	x1 = 0.001141	x1 = 0.003237	x1 = 0.006694	x1 = 0.009965	x1 = 0.015	x1 = 0.01736	x1 = 0.02174	x1 = 0.03032	x1 = 0.04061
293.15 K	0.6007	0.6111	0.6517	0.7201	0.7951	0.9362	0.971	1.073	1.306	1.616
298.15 K	0.5652	0.5749	0.6124	0.6756	0.7447	0.8679	0.9064	0.9993	1.212	1.493
303.15 K	0.5329	0.5419	0.5768	0.6355	0.6992	0.8126	0.8482	0.9337	1.129	1.385
308.15 K	0.5016	0.5101	0.5425	0.5965	0.6557	0.7602	0.793	0.871	1.051	1.284
313.15 K	0.4748	0.4827	0.513	0.5635	0.6185	0.7155	0.7459	0.8182	0.9851	1.198

C=CCN(CC=C)C(=O)C(Cl)Cl + CCO
viscosity [mPa·s], 101 kPa
Conditions	x1 = 0.004764	x1 = 0.01126	x1 = 0.01785	x1 = 0.02455	x1 = 0.03127	x1 = 0.03725	x1 = 0.04407
293.15 K	1.208	1.238	1.258	1.284	1.314	1.334	1.372
298.15 K	1.108	1.134	1.162	1.178	1.201	1.215	1.245
303.15 K	1.008	1.025	1.043	1.062	1.08	1.1	1.116
308.15 K	0.9132	0.9322	0.9453	0.9641	0.9854	0.9997	1.02
313.15 K	0.832	0.8475	0.8596	0.8743	0.8941	0.9139	0.9264

CC(=O)c1ccccc1 + CCOC(=O)OCC
viscosity [mPa·s], 101 kPa
Conditions	x2 = 0.0972	x2 = 0.1515	x2 = 0.2512	x2 = 0.3615	x2 = 0.4921	x2 = 0.5705	x2 = 0.6654	x2 = 0.7584	x2 = 0.8932	x2 = 0.9425
303.15 K	1.413	1.358	–	1.155	–	0.977	0.906	0.843	0.76	0.732
308.15 K	1.286	1.237	1.15	1.059	0.958	0.902	0.839	0.783	0.708	0.683
313.15 K	1.205	1.159	1.079	0.995	0.901	0.85	0.791	0.738	0.669	0.646

CC(=O)c1ccccc1 + ClC(Cl)Cl
298.15 K, 101 kPa
Conditions	viscosity [mPa·s]
x1 = 0.0992	0.655
x1 = 0.337	0.915
x1 = 0.501	1.107
x1 = 0.7125	1.352
x1 = 0.8875	1.53
